For the assay, the system named is P388 leukemia ip, CD2F1 mice, survival T/C. The experiment in a line: NCI In Vivo Anticancer Drug Screen. Data for tumor model P388 Leukemia (intraperitoneal) in CD2F1 (CDF1) mice. The settings on record: endpoint: median survival time, higher = longer survival. In outline: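 Mice carrying the transplanted tumor received test compound or vehicle. Survival was recorded in each group, and the value is the treated-group measurement divided by that of the vehicle-treated control group.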

The mark [1] stands for this setting: dose: 60.0 mg/kg/injection, schedule: Q01DX005 (ip), vehicle: saline.
[2] abbreviates: dose: 120.0 mg/kg/injection, schedule: Q01DX005 (ip), vehicle: saline.

Inconclusive results and toxic doses are left out.

Consider `Cc1cc(NC(=O)c2ccc(N)cc2)ccc1N=Nc1ccc2c(O)c(N=Nc3ccc(S(=O)(=O)O)cc3C)c(S(=O)(=O)O)cc2c1`, for which the T/C reads like this: (dose: 50.0 mg/kg/injection, schedule: Q01DX005 (ip), vehicle: saline with Tween-80) 100 % of control; (dose: 100.0 mg/kg/injection, schedule: Q01DX005 (ip), vehicle: saline with Tween-80) 90 % of control.

On to `C=CCOc1cc2c(cc1Cc1cc(OC)c(OC)c(OC)c1)OCO2`, for which the T/C is, setting by setting: under setting [1], 100 % of control; under setting [2], 99 % of control.

For the compound `CC1=CC(=O)C(O)C2(C)C1CC1OC(=O)C(OC3OC(CO)C(O)C(O)C3O)C3C(C)C(O)C4(O)OCC13C42` (configuration not stated), the T/C was 101 % of control (dose: 0.25 mg/kg/injection, schedule: Q01DX005 (ip), vehicle: water) and 102 % of control (dose: 0.5 mg/kg/injection, schedule: Q01DX005 (ip), vehicle: water).

Regarding `O=P(O)(O)c1ccccc1P(=O)(O)O`, the T/C runs as follows: under setting [1], 105 % of control; under setting [2], 93 % of control.

In the case of `NC(CSCSCc1ccccc1)C(=O)O` (configuration not stated), the T/C (dose: 25.0 mg/kg/injection, schedule: Q01DX009 (ip), vehicle: other) was 102 % of control; the T/C (dose: 50.0 mg/kg/injection, schedule: Q01DX009 (ip), vehicle: other) was 110 % of control; the T/C (dose: 100.0 mg/kg/injection, schedule: Q01DX009 (ip), vehicle: other) was 102 % of control; the T/C (dose: 200.0 mg/kg/injection, schedule: Q01DX009 (ip), vehicle: other) was 106 % of control.

As for `OC1Cc2ccccc2CC1NC1CCCCC1` (configuration not stated), the T/C (dose: 50.0 mg/kg/injection, schedule: Q01DX005 (ip), vehicle: saline) is 108 % of control and the T/C (dose: 100.0 mg/kg/injection, schedule: Q01DX005 (ip), vehicle: saline) is 98 % of control.

Regarding `C[N+](c1ccc(Cl)cc1)=S(C)(C)=O`, the T/C reads like this: (dose: 6.25 mg/kg/injection, schedule: Q01DX009 (ip), vehicle: saline) 99 % of control; (dose: 12.5 mg/kg/injection, schedule: Q01DX009 (ip), vehicle: saline) 94 % of control; (dose: 25.0 mg/kg/injection, schedule: Q01DX009 (ip), vehicle: saline) 98 % of control.

For the origin of these results see PubChem BioAssay AID330 (DTP/NCI, 2004).
